# Source: article PMC9699400 (Molecules, 2022)
# Where “and” joins values, the source holds several entries; their conditions need not be identical. Equal entries are not always repeated. Structures can show the parent of a compound that is named as a salt. Where two headings read alike, the source gives them in different places. Marks after values point to notes of the source that are not given here.
# How the values were obtained:
# PC12 cells [1] = settings: 10 µM; ref 54 (Liu et al.); cited from earlier work
# [2] = tested on: Aβ25–35-induced PC12 cells; assay: GSH level in Aβ25–35-induced PC12 cells; assay type: cell-based
# Experimental: (§1) Each group was provided with six duplicate wells based on different measurement indexes.
# (§2) For cell culture and grouping sample addition, please refer to Section 2.9. After incubation, the culture plate was centrifuged at 200× g for 5 min using a plate centrifuge, and the supernatant was discarded. Next, the cells were collected and broken by ultrasound and centrifuged at 3000 r/min at 4 °C for l0 min, and the supernatant was collected for subsequent assays. The OD was recorded at 532 and 405 nm, respectively, following the instructions mentioned in the manual for the MDA and GSH kits. Intracellular MDA content and GSH levels are expressed as percentages of the control.
# AChE [3] = biological target: T1, AChE (Electrophorus electricus, UniProt O42275); assay: Inhibitory type kinetics analysis (reversibility plots, Lineweaver-Burk); assay type: biochemical
# T1 construct: purchased Sigma-Aldrich Co. (St. Louis, MO, USA)
# Experimental: The type of inhibition was determined using the Lineweaver-Burk plot in double reciprocal form.
# AChE [4] = biological target: T1, AChE; assay: Time-course inactivation kinetics of AChE; assay type: biochemical; settings: for Transition Free Energy Change ΔΔG°: ΔΔG° = −RTlnk
# Experimental: We determined enzyme activities at diverse contents every 3 min for 0–30 min and every 5 min for 30–70 min.
# AChE [5] = biological target: T1, AChE; assay: Fluorescence quenching of AChE; assay type: binding
# Experimental: After each drop, the solution was mixed and left for 3 min to balance the solution. The fluorescence emission spectra at 290 to 450 nm were scanned at an excitation wavelength of 280 nm, with emission and excitation slot widths of 2.5 nm.
# [6] = tested on: Aβ25–35-induced PC12 cells; assay: Aβ25–35-induced PC12 cell viability (MTT); settings: then 20 µM Aβ25–35 24 h, model group 51.43 ± 2.61
# Experimental: (§3) PC12 cells were procured from Nanjing KeyGen Biotech Co. Ltd. (Nanjing, China). The cells were maintained in high-glucose DMEM containing 10% fetal bovine serum (FBS) and 1% P-S and incubated under 5% CO2 and 37 °C. PC12 cells in the logarithmic phase were seeded in 96-well (approximately 2 × 10^4/well) or 24-well (approximately 1 × 10^5/well) culture plates, incubated for 24 h, followed by the replacement of the medium.
# as §1
# PC12 cells were inoculated in 96-well plates for 24 h.
# AChE [7] = biological target: T1, AChE; assay: CD spectra, secondary structure of AChE
# From the text: The MOS 450 CD spectrometer (Bio-Logic, Claix, France) was used to measure the CD spectra for AChE solution at 190 to 250 nm under ambient temperature. […] The method to analyze the content of specific secondary structures has been reported in our previous study.
# AChE [8] = settings: cited from earlier work
# [9] = tested on: Aβ25–35-induced PC12 cells; assay: MDA content in Aβ25–35-induced PC12 cells; assay type: cell-based; settings: quercetin pretreatment (1–40 µM), 20 µM Aβ25–35 24 h; p < 0.01 relative to the model group
# Experimental: as §1, §2
# PC12 cells [10] = assay: Quercetin-induced toxicity in PC12 cells (MTT); settings: 1–80 µM, 24 h, n = 6
# Experimental: as §3
# [11] = molar ratio quercetin:AChE 10:1
# T1 sequence (O42275 24-633): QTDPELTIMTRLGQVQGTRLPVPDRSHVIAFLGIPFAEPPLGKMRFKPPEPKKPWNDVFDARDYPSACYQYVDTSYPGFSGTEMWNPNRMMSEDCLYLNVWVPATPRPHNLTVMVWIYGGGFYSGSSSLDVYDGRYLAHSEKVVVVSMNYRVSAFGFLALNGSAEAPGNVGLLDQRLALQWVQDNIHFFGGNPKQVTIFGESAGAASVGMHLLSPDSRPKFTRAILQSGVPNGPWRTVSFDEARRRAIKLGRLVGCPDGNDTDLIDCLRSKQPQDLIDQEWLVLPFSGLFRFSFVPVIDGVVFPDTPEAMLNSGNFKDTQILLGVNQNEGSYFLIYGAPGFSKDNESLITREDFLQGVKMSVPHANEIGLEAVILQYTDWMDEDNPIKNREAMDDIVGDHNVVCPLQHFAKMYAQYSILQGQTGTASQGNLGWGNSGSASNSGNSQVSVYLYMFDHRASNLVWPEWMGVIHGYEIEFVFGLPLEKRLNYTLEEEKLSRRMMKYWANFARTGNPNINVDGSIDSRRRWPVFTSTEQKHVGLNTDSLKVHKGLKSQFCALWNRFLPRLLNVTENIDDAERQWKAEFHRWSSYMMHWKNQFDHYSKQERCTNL
structure (smiles),measurement,setting,value
COc1ccc2c3c1O[C@H]1C[C@@H](O)C=C[C@@]31CCN(C)C2 [galantamine hydrobromide],protection of cells against Aβ25–35 neurotoxicity,PC12 cells [1],significantly protected
"O=c1c(O)c(-c2ccc(O)c(O)c2)oc2cc(O)cc(O)c12 [quercetin, 3,3′,4′,5,7-pentahydroxyflavone]",GSH levels versus model group,"[2]; 1 µM pretreatment, p > 0.05",no statistical difference
same,intracellular GSH levels versus model group,"[2]; 10, 20, and 40 µM pretreatment, dose-dependent",increased
same,type of inhibition,"AChE [3]; Lineweaver–Burk, c(AChE) = 0.57 nM, quercetin 0–12.0 µM",mixed inhibitory type
same,reversibility of inhibition,"AChE [3]; plots of v versus [AChE], c(ATCI) = 0.25 mM, quercetin 0–8.0 µM",reversible inhibitor
same,αKi (binding to AChE–ATCI complex),AChE [3]; secondary plot of Lineweaver–Burk y-intercepts,19.53 ± 0.65 µM
same,Inactivation Rate Constant k,AChE [4]; quercetin 1.5 µM,4.18 ± 0.06 ×10^−4 s^−1 and 4.18 ± 0.06 ^d ×10^−4 s^−1
same,Inactivation Rate Constant k,AChE [4]; quercetin 3.0 µM,5.73 ± 0.03 ^c ×10^−4 s^−1
same,Inactivation Rate Constant k,AChE [4]; quercetin 6.0 µM,6.04 ± 0.08 ^b ×10^−4 s^−1
same,Inactivation Rate Constant k,AChE [4]; quercetin 15.0 µM,6.41 ± 0.05 ×10^−4 s^−1 and 6.41 ± 0.05 ^a ×10^−4 s^−1
same,"bimolecular quenching rate constant Kq, magnitude order","AChE [5]; 25, 31 and 37 °C",~10^12 L mol^−1 s^−1
same,Gibbs free energy ∆G°,AChE [5]; 25 °C,-6.475 ± 0.0072 kcal/mol
same,binding site quantity n,AChE [5]; 25 °C,0.75 ± 0.04
same,quenching constant KSV,"AChE [5]; 25 °C, pH 7.6",6.21 ± 0.08 ^a ×10^4 L mol^−1
same,Gibbs free energy ∆G°,AChE [5]; 31 °C,-6.303 ± 0.012 kcal/mol
same,binding site quantity n,AChE [5]; 31 °C,0.69 ± 0.01
same,quenching constant KSV,AChE [5]; 31 °C,4.81 ± 0.06 ^b ×10^4 L mol^−1
same,Gibbs free energy ∆G°,AChE [5]; 37 °C,-6.128 ± 0.017 kcal/mol
same,binding site quantity n,AChE [5]; 37 °C,0.67 ± 0.03
same,quenching constant KSV,AChE [5]; 37 °C,3.33 ± 0.05 ^c ×10^4 L mol^−1
same,enthalpy change ∆H°,"AChE [5]; van't Hoff equation, 25–37 °C",-15.15 ± 0.017 kcal/mol
same,entropy change ∆S°,"AChE [5]; van't Hoff equation, 25–37 °C",-121.8 ± 0.06 J mol^−1 K^−1
same,"cell viability, % of the control group",[6]; pretreatment 1 µM,56.06 ± 3.82%
same,"cell viability, % of the control group",[6]; pretreatment 10 µM,62.14 ± 2.79%
same,"cell viability, % of the control group",[6]; pretreatment 20 µM,68.58 ± 2.12%
same,"cell viability, % of the control group",[6]; pretreatment 40 µM,78.61 ± 3.26%
same,"cell viability, % of the control group",[6]; pretreatment 80 µM,79.48 ± 4.32%
same,β-Sheet of AChE,"AChE [7]; molar ratio quercetin:AChE 2:1, free AChE 18.62 ± 0.06",17.31 ± 0.09 ^b %
same,β-Turn of AChE,"AChE [7]; molar ratio quercetin:AChE 2:1, free AChE 19.18 ± 0.28",20.15 ± 0.24 ^c %
same,Random Coil of AChE,"AChE [7]; molar ratio quercetin:AChE 2:1, free AChE 28.02 ± 0.65",25.41 ± 0.34 ^b %
same,α-Helix of AChE,"AChE [7]; molar ratio quercetin:AChE 2:1, free AChE 34.35 ± 0.74",37.13 ± 0.16 ^c %
same,Random Coil of AChE,AChE [7]; molar ratio quercetin:AChE 6:1,23.71± 0.28 ^c %
same,β-Sheet of AChE,AChE [7]; molar ratio quercetin:AChE 6:1,16.20 ± 0.17 ^c %
same,β-Turn of AChE,AChE [7]; molar ratio quercetin:AChE 6:1,21.62 ± 0.13 ^b %
same,Random Coil of AChE,AChE [7]; [11],20.19% and 20.19 ± 0.37 ^d %
same,α-Helix of AChE,AChE [7]; [11],41.51% and 41.51 ± 0.28 ^a %
same,β-Sheet of AChE,AChE [7]; [11],15.16% and 15.16 ± 0.14 ^d %
same,β-Turn of AChE,AChE [7]; [11],23.14% and 23.14 ± 0.32 ^a %
same,release of MDA,[9],inhibited
same,"cytotoxicity (cell viability, MTT)",PC12 cells [10],no toxic effect
"C[C@@H]1O[C@@H](Oc2c(-c3ccc(O)c(O)c3)oc3cc(O)cc(O)c3c2=O)[C@H](O)[C@H](O)[C@H]1O [quercitrin, reference compound]",IC50,AChE [8]; no reference at the value itself,94.5 µM
"O=C1c2c(O)cc(O)cc2OC(c2ccc(O)c(O)c2)C1O (stereo not drawn) [taxifolin, reference compound]",IC50,AChE [8],54 ± 1.58 µM
